According to ChEMBL document CHEMBL2380257, “Discovery of a small-molecule inhibitor and cellular probe of Keap1-Nrf2 protein-protein interaction” (Bioorg Med Chem Lett, 2013):

Columns and labels:
Assay type in all cases: physicochemical
[1] = Metabolic stability of the compound assessed as thiol group decomposition after 48 hrs in presence of glutathione
[2] = Stability in phosphate buffer after 24 hrs
[3] = Metabolic stability of the compound assessed as thiol group addition after 48 hrs in presence of glutathione
[4] = Solubility of the compound in phosphate buffer

Stability [1]: Stable
Stability [2]: Stable
Stability [3]: Stable
solubility [4]: > 100 µM
SMILES: O=C(O)[C@H]1CCCC[C@H]1C(=O)N1CCc2ccccc2[C@H]1CN1C(=O)c2ccccc2C1=O
